Like-named read-outs stand apart in the source and are kept apart here.
How the values were obtained:
Enterobacteriaceae [1] = settings: Example 3; for Enterobacteriaceae: drums dipped 10 s, drip 60 s, control 2.8
Experimental: (§1) Drums (poultry) were purchased from a local retailer, frozen, and thawed for testing. The parts were allowed to sit at room temperature for 24 hours prior to testing. As a control, five drums (Sample IDs 1-5) were individually, aseptically rinsed (100 ml of rinsate).
(§2) Next, approximately 630 mL of 3,000 ppm zinc sulfate was added and manually agitated in 1 gallon of tap water in a 3-gallon bucket to yield a 500 ppm zinc sulfate solution. Five drums (Sample IDs 6-10) were fully submerged in the zinc sulfate solution, manually agitated for 10 seconds, then removed and allowed to drip for 60 seconds. The drums were individually, aseptically rinsed.
(§3) Next, 1 gallon of water and 4 ml of sulfuric acid were added to a bucket to yield a solution having a pH of 1.2. Five drums (Sample IDs 11-15) were fully submerged in the sulfuric acid solution, manually agitated for 10 seconds, then removed and allowed to drip for 60 seconds. The drums were individually, aseptically rinsed.
(§4) Lastly, 1 gallon of water and 630 mL of 3,000 ppm zinc sulfate/sulfuric acid solution were added to a bucket to yield a 500 ppm zinc sulfate/sulfuric acid solution having a pH of 1.2. Five drums (Sample IDs 16-20) were fully submerged in the zinc sulfate/sulfuric acid solution, manually agitated for 10 seconds, then removed and allowed to drip for 60 seconds. The drums were individually, aseptically rinsed.
(§5) All rinsate samples collected were placed in a refrigerator overnight. The samples were analyzed for 3M Aerobic Plate Count (APC) Petrifilm™ (AOAC Official Method 990.12), E. coli/Coliform (EC/CO) Petrifilm™ (AOAC Official Method 998.08), and Enterobacteriaceae (EB) Petrifilm™ (AOAC Official Method 2003.01). The samples were recorded as counts, which were then converted to log10 CFU/mL for statistical analysis of the means.

Aerobic plate count [2] = settings: Example 3; for Aerobic plate count: drums dipped 10 s, drip 60 s, control 5.2
Experimental: as §1, §2, §3, §4, §5

Aerobic plate count [3] = settings: Example 4; for Aerobic plate count: drums dipped 10 s, drip 60 s, control 7.9; for APC result versus control, in words: single treatments: 500 ppm zinc sulfate only (samples 6-10) or sulfuric acid pH 1.2 or less
Experimental: (§6) All rinsate samples collected were placed in a refrigerator overnight. The samples were analyzed for 3M Aerobic Plate Count (APC) Petrifilm™ (AOAC Official Method 990.12), and Enterobacteriaceae (EB) Petrifilm™ (AOAC Official Method 2003.01). The samples were recorded as counts, which were then converted to log10 CFU/mL for statistical analysis of the means.

Enterobacteriaceae [4] = settings: Example 4; for Enterobacteriaceae: drums dipped 10 s, drip 60 s, control 4.9; for EB analysis result versus control, in words: single treatments: 500 ppm zinc sulfate only (samples 6-10) or sulfuric acid pH 1.2 or less
Experimental: as §6

Salmonella species = settings: ppm = mg of zinc per L of treatment solution; cited from earlier work
[5] = 1.2 pH sulfuric acid alone, Sample IDs 11-15
[6] = 500 ppm zinc sulfate alone, Sample IDs 6-10

SMILES	Enterobacteriaceae, reduction from control (Enterobacteriaceae [1]; [5]) [log10 CFU/ml]	Enterobacteriaceae (Enterobacteriaceae [1]; [5]) [log10 CFU/ml]	Aerobic plate count, reduction from control (Aerobic plate count [2]; [5]) [log10 CFU/ml]	Aerobic plate count (Aerobic plate count [2]; [5]) [log10 CFU/ml]	Aerobic plate count, reduction from control (Aerobic plate count [3]; [5]) [log10 CFU/ml]	Aerobic plate count (Aerobic plate count [3]; [5]) [log10 CFU/ml]	APC result versus control, in words (Aerobic plate count [3])	Enterobacteriaceae, reduction from control (Enterobacteriaceae [4]; [5]) [log10 CFU/ml]	Enterobacteriaceae (Enterobacteriaceae [4]; [5]) [log10 CFU/ml]	EB analysis result versus control, in words (Enterobacteriaceae [4])	minimum inhibitory concentration (MIC) (Salmonella species)	Enterobacteriaceae, reduction from control (Enterobacteriaceae [1]; [6]) [log10 CFU/ml]	Enterobacteriaceae (Enterobacteriaceae [1]; [6]) [log10 CFU/ml]	Aerobic plate count, reduction from control (Aerobic plate count [2]; [6]) [log10 CFU/ml]	Aerobic plate count (Aerobic plate count [2]; [6]) [log10 CFU/ml]	Aerobic plate count, reduction from control (Aerobic plate count [3]; [6]) [log10 CFU/ml]	Aerobic plate count (Aerobic plate count [3]; [6]) [log10 CFU/ml]	Enterobacteriaceae, reduction from control (Enterobacteriaceae [4]; [6]) [log10 CFU/ml]	Enterobacteriaceae (Enterobacteriaceae [4]; [6]) [log10 CFU/ml]
O=S(=O)(O)O [sulfuric acid, reference compound]	1.1	1.7	0.6	4.6	0.7	7.2	statistically significant reductions	0.5	4.4	statistically significant reductions									
O=S(=O)([O-])[O-].[Zn+2] [zinc sulfate]							statistically significant microbial reduction			statistically significant microbial reduction	about 0.25 ppm	1.1	1.7	0.7	4.5	0.7	7.2	1.9	3.3
